Assay results reported in patent US9693974B2, “Antibacterial and antifungal biphenylyl compounds” (CHRISTIAN-ALBRECHTS-UNIVERSITY OF KIEL, priority 2010, dated 2017).
In brackets after ≈: the same amount, converted by molar mass. Counter-ions that a name gives are not always drawn. Like-named read-outs stand apart in the source and are kept apart here. Blank lines part the entries; values can stand above or below the compound they belong to.

What was measured:
Experiment in all cases: MIC, Bouillon-microdilution method (CLSI M07-A8)
Format in all cases: cell-based
[1] = test system: Candida albicans ATCC 10231
Method: (§1) The respective determination is valid if in the growth control (DMSO and medium) a distinct turbidity is observed.
(§2) The minimum inhibitory concentrations of the substances of the present inventions against various infectious germs, i.a. against methicillin-resistant Staphylococcus aureus were determined with the Bouillon-microdilution method in accordance with the procedure M07-A8 of the Clinical and Laboratory Standards Institute (Pennsylvania, USA).
(§3) (Source: German Collection of Microorganisms and Cell Cultures, Braunschweig) Enterococcus hirae ATCC 10541, Staphylococcus epidermidis ATCC 12228, Staphylococcus aureus ATCC 6538, methicillin-resistant Staphylococcus aureus ATCC 33592, Bacillus cereus ATCC 11778, Candida albicans ATCC 10231, Aspergillus niger ATCC 16404, Aspergillus fumigatus ATCC 9197.
(§4) In sterile tubes with titled agar, bacteria with casein peptone soy flour peptone agar (Merck, Art. No. 1.05458.05), incubation 18-24 h at 34° C., fungi with Sabouraud 4% Glucose Agar (Merck 1.05438.05), incubation Candida albicans 18-24 h at 34° C., mold fungous 7 days at 22° C.
(§5) Suspensions are produced on titled agar by floating with 0.9% sterile NaCl solution. The turbidity is adjusted photometrically by dilution according to the turbidity of the Mc Farland-standard 0.5.
(§6) Subsequently, the bacterial suspensions are diluted in the ratio of 1:10, the Pi-suspension of the fungi remains undiluted.
(§7) The number of the germs in the inocula is adjusted so that there are approximately 5×10^5 colony forming units per milliliter after inoculation of the test wells.
(§8) The amount of a substance to be tested in a trial is weighed out on a microbalance with an Eppendorf reaction vessel and dissolved in an appropriate volume of dimethyl sulfoxide so that the concentration of the resulting solution corresponds to the 21 times highest final test concentration. The stock solution is subsequently diluted in a serial in a ratio respectively 1 ad 2 with DMSO resulting in seven different concentrations in the wells of a predilution plate. In the eighth well only DMSO is pipetted.
(§9) In each of the 96 wells of a test plate 95 μl sterile Mueller Hinton II medium (Cation adjusted, BBL™ Ref. 212322) for bacteria and sterile Sabouraud 2% glucose medium (DIFCO™ Ref 238230) for fungis are added with an eight-channel pipette (Socorex 50-200 μL). 5 μL of the solution to be tested are pipetted in each of the test wells of the plate (8-channel pipette, Eppendorf-Research, 5-10 μL). They are transferred in this way from the pre-dilutions that in the horizontal row A the highest concentration and respectively a half reduced concentration of the substance to be tested until row G and in row H only DMSO is pipetted. Subsequently, 5 μL of the inocula are pipetted in the test wells using an eight-channel pipette. In one test at least two, maximum four rows are inoculated with the same substance and the same germs. The concentrations of the test substance are each 128 μg/mL to 2 μg/mL.
(§10) The prepared plates are converted to a microtiter plate reader (Anthos ht111) which is connected to a printer. In this device, the plates are shaken for 60 seconds with high frequency before each measurement and the absorption of the probes is measured at the wavelength of light of 590 nm.
(§11) After determination of the initial values the plates are incubated at 34° C. for 16 to 20 h for bacteria and Candida albicans, and 68 to 72 h at 34° C. for mould fungis.
(§12) Following this the micro titer plates are measured again as described above.
(§13) The minimum inhibitory concentration is the lowest concentration of the tested substance which is able to inhibit the complete growth of the particular test organism, i.e. where after incubation no turbidity is measurable. The particular determination is valid when in the growth control (DMSO and medium) a distinct turbidity is observed.

[2] = test system: Staphylococcus aureus ATCC 6538; details: for MIC: Staphylococcus aureus
Method: as §1, §2, §3, §4, §5, §6, §7, §8, §9, §10, §11, §12, §13

[3] = test system: methicillin-resistant Staphylococcus aureus ATCC 33592; details: for MIC: ATCC 33592 / MRSA, read-out: MIC values MRSA
Method: as §1, §2, §3, §4, §5, §6, §7, §8, §9, §10, §11, §12, §13

[4] = test system: Staphylococcus epidermidis ATCC 12228; details: ATCC12228, Staphylococcus epidermis, read-out: MIC values S.e.
Method: as §1, §2, §3, §4, §5, §6, §7, §8, §9, §10, §11, §12, §13

Escherichia coli = details: read-out: MIC values E.c.
Method: as §1, §2, §4, §5, §6, §7, §8
as §9, with “Subsequently, 5 μL of the inocula are pipetted in the test wells using an eight-channel pipette. In one test at least two, maximum four rows are inoculated with the same substance and the same germs. The concentrations of the test substance are each 128 μg/mL to 2 μg/mL.” left out
(§14) The prepared plates are converted to a microtiter plate reader (Anthos ht111) which is connected to a printer. In this device, the plates are shaken for 60 seconds with high frequency before each measurement and the absorption of the probes is measured at the wavelength of light of 590 nm. […]
(§15) Following this the micro titer plates are measured again as described above. […]

Pseudomonas aeroginosa = details: read-out: MIC values P.a.
Method: as §1, §2, §4, §5, §6, §7, §8
as §9, with “Subsequently, 5 μL of the inocula are pipetted in the test wells using an eight-channel pipette. In one test at least two, maximum four rows are inoculated with the same substance and the same germs. The concentrations of the test substance are each 128 μg/mL to 2 μg/mL.” left out
as §14, §15

[5] = test system: Aspergillus fumigatus ATCC 9197; details: ATCC9197, read-out: MIC values A.f.
Method: as §1, §2, §3, §4, §5, §6, §7, §8, §9, §10, §11, §12, §13

[6] = test system: Aspergillus niger ATCC 16404; details: ATCC16404, read-out: MIC values A.n.
Method: as §1, §2, §3, §4, §5, §6, §7, §8, §9, §10, §11, §12, §13

[7] = test system: Enterococcus hirae ATCC 10541; details: ATCC10541, read-out: MIC values E.h.
Method: as §1, §2, §3, §4, §5, §6, §7, §8, §9, §10, §11, §12, §13

[8] = ATCC6538, number of tests in brackets, rounded average of logarithmic endpoints, read-out: MIC values S.a.
[9] = methicillin-resistant Staphylococcus aureus, number of tests in brackets

SMILES: CN(C)CCC(=O)c1ccc(-c2ccc(Br)cc2)cc1.Cl [GG20-3, reference compound]
- MIC [2, 8]: 32 µg/mL
- MIC [4]: 16 µg/mL
- MIC [3, 9]: 32 µg/mL
- MIC (Escherichia coli): > 64 µg/mL
- MIC (Pseudomonas aeroginosa): > 64 µg/mL

SMILES: CN[C@H](CC(C)C)C(=O)N[C@H]1C(=O)N[C@@H](CC(N)=O)C(=O)N[C@H]2C(=O)N[C@H]3C(=O)N[C@H](C(=O)N[C@H](C(=O)O)c4cc(O)cc(O)c4-c4cc3ccc4O)[C@H](O)c3ccc(c(Cl)c3)Oc3cc2cc(c3O[C@@H]2O[C@H](CO)[C@@H](O)[C@H](O)[C@H]2O[C@H]2C[C@](C)(N)[C@H](O)[C@H](C)O2)Oc2ccc(cc2Cl)[C@H]1O [Vancomycin, reference compound]
- MIC ([3]; Staphylococcus aureus): < 2 µg/mL

SMILES: CN(C)[C@@H]1C(=O)C(C(N)=O)=C(O)[C@@]2(O)C(=O)C3=C(O)c4c(O)cccc4[C@@](C)(O)[C@H]3C[C@@H]12 [Tetracyclin, reference compound]
- MIC values MRSA [3, 9]: 64 µg/mL (≈ 144 µM)

SMILES: CN(C)CCCCc1ccc(-c2ccc(Br)cc2)cc1 [GG28, 4-bromo-4′-(4-dimethylaminobutyl) biphenyl hydrochloride]
- MIC ([1]; ATCC10231, read-out: MIC values C.a. (Yeast)): 8 µg/mL
- MIC ([2]; ATCC6538, read-out: MIC values S.a.): 13 µg/mL
- MIC ([3]; Staphylococcus aureus): 18 µg/mL

Now from value to compound:

- MIC ([1]; ATCC10231, Candida albicans, number of tests in brackets, read-out: MIC values C.a. (Yeast)): 8 µg/mL
- MIC [2, 8]: 16 µg/mL
- MIC [3, 9]: 16 µg/mL
SMILES: CN(C)CCCCC(=O)c1ccc(-c2ccc(Br)cc2)cc1.Cl [GG20-5]

- MIC [5]: 8 µg/mL
- MIC [6]: 64 µg/mL
- MIC [7]: 16 µg/mL
- MIC [2, 8]: 4 to 8 µg/mL
- MIC [4]: 4 µg/mL
- MIC [3, 9]: 8 µg/mL
- MIC (Escherichia coli): > 64 µg/mL
- MIC (Pseudomonas aeroginosa): > 64 µg/mL
SMILES: CN(C)CCCC(=O)c1ccc(-c2ccc(Br)cc2)cc1.Cl [GG20-4, 4′-(4-bromophenyl)-4-dimethylaminobutyrophenone-hydrochloride]

- MIC value / growth inhibition of Staphylococcus aureus (result in words) ([2]; also after addition of higher concentrations): did not inhibit the growth
SMILES: Cl.O=C(CCCN1CCN(c2ccccc2)CC1)c1ccc(-c2ccc(Br)cc2)cc1 [4′-(4-bromophenyl)-4-(N-phenylpiperazino)butyrophenone-hydrochloride, reference compound]
